Laboratory results taken from US20090105305A1, “Therapeutic Agents - 550” (AstraZeneca AB, priority 2006, published 2009).

Biological target: T1, human Fatty Acid Synthase (Homo sapiens, UniProt P49327)
T1 construct: made in house
Experiment: Human FAS enzyme assay (decrease in NADPH fluorescence)
Assay type: biochemical
Details: % inhibition at a concentration of 100 micromolar
Outline: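 In-house human FAS (0.4 μg) was preincubated 15 min at RT with compound and NADPH (added at 166.6 μM) in 0.1 M Tris pH 7.5, 1 mM glutathione, 0.05% BSA. Malonyl-/acetyl-CoA (500/150 μM in substrate mix) was then added for 60 min. Readout was NADPH fluorescence loss (ex 340/em 460) over a time-zero read, with IC50 from a sigmoid fit.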

T1 sequence (P49327 whole entry): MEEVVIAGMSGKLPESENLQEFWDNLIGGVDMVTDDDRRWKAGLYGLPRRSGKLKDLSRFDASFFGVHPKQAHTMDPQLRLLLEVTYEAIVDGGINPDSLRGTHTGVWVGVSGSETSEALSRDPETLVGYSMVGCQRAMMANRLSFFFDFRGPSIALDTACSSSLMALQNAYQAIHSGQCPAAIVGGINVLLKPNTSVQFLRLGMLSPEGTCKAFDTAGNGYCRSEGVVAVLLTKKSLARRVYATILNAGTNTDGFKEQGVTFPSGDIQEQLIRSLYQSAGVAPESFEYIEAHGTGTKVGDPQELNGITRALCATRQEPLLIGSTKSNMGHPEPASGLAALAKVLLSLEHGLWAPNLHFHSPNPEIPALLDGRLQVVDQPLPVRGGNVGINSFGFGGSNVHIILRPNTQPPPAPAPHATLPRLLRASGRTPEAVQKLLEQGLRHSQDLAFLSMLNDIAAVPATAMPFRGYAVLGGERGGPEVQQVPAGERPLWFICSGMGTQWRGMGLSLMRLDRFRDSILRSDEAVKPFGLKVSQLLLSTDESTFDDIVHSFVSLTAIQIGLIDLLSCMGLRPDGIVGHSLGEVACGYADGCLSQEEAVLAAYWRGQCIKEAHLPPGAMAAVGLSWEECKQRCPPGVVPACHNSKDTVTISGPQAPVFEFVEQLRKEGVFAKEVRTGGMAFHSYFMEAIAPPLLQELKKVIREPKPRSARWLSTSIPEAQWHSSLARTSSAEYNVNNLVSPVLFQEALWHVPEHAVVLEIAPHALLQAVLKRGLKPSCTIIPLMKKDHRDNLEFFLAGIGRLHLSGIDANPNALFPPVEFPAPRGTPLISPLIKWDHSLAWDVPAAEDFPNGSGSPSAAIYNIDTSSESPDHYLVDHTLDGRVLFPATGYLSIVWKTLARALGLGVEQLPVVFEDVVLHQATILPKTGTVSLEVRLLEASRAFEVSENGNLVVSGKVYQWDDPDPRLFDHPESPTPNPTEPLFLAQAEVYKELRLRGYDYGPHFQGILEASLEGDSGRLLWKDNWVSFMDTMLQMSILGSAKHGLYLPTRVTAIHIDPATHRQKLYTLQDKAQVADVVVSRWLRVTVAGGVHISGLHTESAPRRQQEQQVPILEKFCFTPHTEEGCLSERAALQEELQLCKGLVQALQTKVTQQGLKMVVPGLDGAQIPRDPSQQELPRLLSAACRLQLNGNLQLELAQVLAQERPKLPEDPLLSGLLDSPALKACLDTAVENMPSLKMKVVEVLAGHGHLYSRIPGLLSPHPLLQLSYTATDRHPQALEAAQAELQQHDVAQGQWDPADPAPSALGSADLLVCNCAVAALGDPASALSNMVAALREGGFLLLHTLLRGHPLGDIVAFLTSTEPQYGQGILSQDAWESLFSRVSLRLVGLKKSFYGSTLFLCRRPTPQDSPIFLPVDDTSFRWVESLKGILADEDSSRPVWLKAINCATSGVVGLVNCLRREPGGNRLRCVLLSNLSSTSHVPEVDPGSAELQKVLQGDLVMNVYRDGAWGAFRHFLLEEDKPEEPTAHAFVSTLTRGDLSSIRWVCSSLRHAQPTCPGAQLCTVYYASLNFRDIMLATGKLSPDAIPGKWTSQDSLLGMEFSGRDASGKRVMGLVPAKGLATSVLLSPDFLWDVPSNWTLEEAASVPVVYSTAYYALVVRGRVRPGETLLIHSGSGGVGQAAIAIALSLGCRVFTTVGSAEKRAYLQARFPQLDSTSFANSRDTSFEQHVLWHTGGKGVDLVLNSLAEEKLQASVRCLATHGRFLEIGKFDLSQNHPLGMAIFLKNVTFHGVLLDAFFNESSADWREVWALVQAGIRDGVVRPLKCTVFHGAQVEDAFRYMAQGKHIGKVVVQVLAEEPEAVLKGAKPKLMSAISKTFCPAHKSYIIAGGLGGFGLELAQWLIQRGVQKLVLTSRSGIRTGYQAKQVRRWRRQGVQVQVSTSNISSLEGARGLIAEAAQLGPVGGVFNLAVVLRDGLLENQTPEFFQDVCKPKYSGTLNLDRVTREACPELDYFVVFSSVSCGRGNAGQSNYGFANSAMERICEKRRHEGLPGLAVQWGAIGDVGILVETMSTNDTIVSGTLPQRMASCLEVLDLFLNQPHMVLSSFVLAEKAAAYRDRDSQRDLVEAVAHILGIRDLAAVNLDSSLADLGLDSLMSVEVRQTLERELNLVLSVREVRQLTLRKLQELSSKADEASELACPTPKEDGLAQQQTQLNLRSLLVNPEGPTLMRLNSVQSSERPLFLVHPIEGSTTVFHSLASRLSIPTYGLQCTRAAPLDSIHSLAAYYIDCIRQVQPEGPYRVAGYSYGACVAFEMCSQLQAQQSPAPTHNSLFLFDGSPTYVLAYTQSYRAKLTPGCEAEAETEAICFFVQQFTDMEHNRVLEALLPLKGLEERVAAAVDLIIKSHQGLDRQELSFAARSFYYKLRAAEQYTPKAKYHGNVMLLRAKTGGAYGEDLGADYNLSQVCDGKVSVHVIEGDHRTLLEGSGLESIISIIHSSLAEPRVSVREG

| SMILES | inhibition at 100 µM [%] |
| --- | --- |
| Cc1ccc(C(=O)N2CCC(c3ccc(S(C)(=O)=O)cc3)CC2)cc1NS(C)(=O)=O [Example 68, N-[2-methyl-5-[4-(4-methylsulfonylphenyl)piperidine-1-carbonyl]phenyl]methanesulfonamide] | 74 |
| Cc1ccc(NS(=O)(=O)C2CCCCC2)cc1C(=O)N1CCC(c2ccc(C#N)cc2)CC1 [Example 42, N-[3-[4-(4-cyanophenyl)piperidine-1-carbonyl]-4-methyl-phenyl]cyclohexanesulfonamide] | 90 |
| Cc1ccc(C(=O)N2CCC(c3ccc(C#N)cc3)CC2)cc1NS(=O)(=O)C1CCN(C)CC1 [Example 125, N-[5-[4-(4-cyanophenyl)piperidine-1-carbonyl]-2-methyl-phenyl]-1-methyl-piperidine-4-sulfonamide] | 98 |
| COCCCS(=O)(=O)Nc1cc(C(=O)N2CCC(c3ccc(C#N)cc3)CC2)ccc1C [Example 110, N-[5-[4-(4-cyanophenyl)piperidine-1-carbonyl]-2-methyl-phenyl]-3-methoxy-propane-1-sulfonamide] | 86 |
| Cc1ccc(C(=O)N2CCC(c3ccc(C#N)cc3)CC2)cc1NS(=O)(=O)CC1CCCC1 [Example 16, N-[5-[4-(4-cyanophenyl)piperidine-1-carbonyl]-2-methyl-phenyl]-1-cyclopentyl-methanesulfonamide] | 95 |
| Cc1ccc(C(=O)N2CCC(c3ccc(C#N)cc3)CC2)cc1NS(=O)(=O)c1ccc(N(C)C)nc1 [Example 96, N-[5-[4-(4-cyanophenyl)piperidine-1-carbonyl]-2-methyl-phenyl]-6-dimethylamino-pyridine-3-sulfonamide] | 98 |
| Cc1ccc(NS(=O)(=O)Cc2ccccc2)cc1C(=O)N1CCC(c2ccc(C#N)cc2)CC1 [Example 8, N-[3-[4-(4-cyanophenyl)piperidine-1-carbonyl]-4-methyl-phenyl]-1-phenyl-methanesulfonamide] | 82 |
| Cc1ccc(C(=O)N2CCC(c3ccc(NS(C)(=O)=O)cc3)CC2)cc1NS(C)(=O)=O [Example 221, N-[4-[1-(3-methanesulfonamido-4-methylbenzoyl)piperidin-4-yl]phenyl]methane-sulfonamide] | 74 |
| N#Cc1ccc(C2CCN(C(=O)c3ccc(Cl)c(NS(=O)(=O)c4ccccc4F)c3)CC2)cc1 [Example 191, N-[2-chloro-5-[4-(4-cyanophenyl)piperidine-1-carbonyl]phenyl]-2-fluorobenzenesulfonamide] | 63 |
| Cc1ccc(C(=O)N2CCC(c3ccc(OCC#N)cc3)CC2)cc1NS(C)(=O)=O [Example 181, N-[5-[4-[4-(cyanomethoxy)phenyl]piperidine-1-carbonyl]-2-methylphenyl]methanesulfonamide] | 100 |
| Cc1ccc(C(=O)N2CCC(c3ccc(CNS(=O)(=O)N(C)C)cc3)CC2)cc1NS(C)(=O)=O [Example 242, N-[5-[4-[4-[(dimethylsulfamoylamino)methyl]phenyl]piperidine-1-carbonyl]-2-methylphenyl]methanesulfonamide] | 95.7 |
| Cc1ccc(C(=O)N2CCC(c3ccc(C#N)cc3)CC2)cc1NS(=O)(=O)c1cnc(C)n1C [Example 114, N-[5-[4-(4-cyanophenyl)piperidine-1-carbonyl]-2-methyl-phenyl]-2,3-dimethyl-imidazole-4-sulfonamide] | 85 |
| CCC(C)S(=O)(=O)Nc1cc(C(=O)N2CCC(c3ccc(C#N)cc3)CC2)ccc1C (racemic) [Example 18, (RS)—N-[5-[4-(4-cyanophenyl)piperidine-1-carbonyl]-2-methyl-phenyl]butane-2-sulfonamide] | 92 |
| CS(=O)(=O)Nc1cccc(C(=O)N2CCC(c3ccc(C#N)cc3)CC2)c1 [Example 203, N-[3-[4-(4-cyanophenyl)piperidine-1-carbonyl]phenyl]methanesulfonamide] | 71 |
| CCCS(=O)(=O)Nc1cc(C(=O)N2CCC(c3ccc(C#N)cc3)CC2)ccc1C [Example 5, N-[5-[4-(4-cyanophenyl)piperidine-1-carbonyl]-2-methyl-phenyl]propane-1-sulfonamide] | 92 |
| Cc1ccc(C(=O)N2CCC(c3ccc(C#N)c(Cl)c3)CC2)cc1NS(C)(=O)=O [Example 218, N-[5-[4-(3-chloro-4-cyanophenyl)piperidine-1-carbonyl]-2-methylphenyl]methane-sulfonamide] | 67 |
| CCn1ncc(S(=O)(=O)Nc2cc(C(=O)N3CCC(c4ccc(C#N)cc4)CC3)ccc2C)c1C [Example 142, N-[5-[4-(4-cyanophenyl)piperidine-1-carbonyl]-2-methyl-phenyl]-1-ethyl-5-methyl-pyrazole-4-sulfonamide] | 98 |
| Cc1ccc(C(=O)N2CCC(c3ccc(C#N)cc3)CC2)cc1NS(=O)(=O)CCCN(C)C [Example 74, N-[5-[4-(4-cyanophenyl)piperidine-1-carbonyl]-2-methyl-phenyl]-3-dimethylamino-propane-1-sulfonamide] | 95 |
| Cc1ccc(C(=O)N2CCC(c3ccc(C#N)cc3)CC2)cc1NS(=O)(=O)c1cn(C)cn1 [Example 94, N-[5-[4-(4-cyanophenyl)piperidine-1-carbonyl]-2-methyl-phenyl]-1-methyl-imidazole-4-sulfonamide] | 86 |
| Cc1ccc(C(=O)N2CCC(O)(c3ccc(Br)cc3)CC2)cc1NS(=O)(=O)Cc1ccccc1 [Example 201, N-[5-[4-(4-bromophenyl)-4-hydroxypiperidine-1-carbonyl]-2-methylphenyl]-1-phenylmethanesulfonamide] | 68 |
| Cc1ccc(C(=O)N2CCC(c3ccc(C#N)c(F)c3)CC2)cc1NS(C)(=O)=O [Example 179, N-[5-[4-(4-cyano-3-fluorophenyl)piperidine-1-carbonyl]-2-methylphenyl]methanesulfonamide] | 85 |
| Cc1ccc(NS(=O)(=O)c2ccc3c(c2)CC(=O)N3)cc1C(=O)N1CCC(c2ccc(C#N)cc2)CC1 [Example 53, N-[3-[4-(4-cyanophenyl)piperidine-1-carbonyl]-4-methyl-phenyl]-2-oxo-1,3-dihydroindole-5-sulfonamide] | 84 |

Same assay, conditions: compounds excluded from the claims by proviso

| SMILES | IC50s in the range of about 0.001 μM to about 30 μM |
| --- | --- |
| Cc1ccc(C(=O)N2CCC(c3cccc(-c4cncs4)c3)CC2)cc1NS(C)(=O)=O [N-[2-methyl-5-[4-[3-(1,3-thiazol-5-yl)phenyl]piperidine-1-carbonyl]phenyl]methanesulfonamide] | do not have IC50s in the range of about 0.001 μM to about 30 μM |
| Cc1ccc(C(=O)N2CCC(O)(c3ccccc3F)CC2)cc1NS(C)(=O)=O [N-[5-[4-(2-fluorophenyl)-4-hydroxypiperidine-1-carbonyl]-2-methylphenyl]methanesulfonamide] | do not have IC50s in the range of about 0.001 μM to about 30 μM |
| Cc1ccc(C(=O)N2CCC(c3ccc(S(=O)(=O)N4CCN(C)CC4)cc3)CC2)cc1NS(C)(=O)=O [N-[2-methyl-5-[4-[4-(4-methylpiperazin-1-yl)sulfonylphenyl]piperidine-1-carbonyl]phenyl]methanesulfonamide] | do not have IC50s in the range of about 0.001 μM to about 30 μM |
